US5312622A, “Acaricidal compositions and process for preparing same” (Richter Gedeon Vegyeszeti Gyar Rt., priority 1992, dated 1994)

Columns and labels:
Apis mellifera = conditions: bee; comparison value, no test described; cited from earlier work
Varroa jacobsoni = assay: Treatment of Varroa jacobsoni-infected bee families in hives, number of perished mites (Example 38); type: in vivo, Varroa jacobsoni mites on Apis mellifera
Procedure: Three families of bees, being present in good condition on nine frames, were infected with `Varroa jacobsoni` to a medium extent, then treated three times, on every third day with the cell-free fermentation broth prepared as described in Example 8 a). Each time, 60 ml of the cell-free fermentation broth prepared as described in Example 8 a) was evenly sprayed by using an airpump spraying device on the honeycomb surfaces and the bees swarming on such surfaces. In addition, each bee family was exposed to the effect of a smoking strip containing 30 mg of amitrase active agent (ANTIVAR for veterinary use) on the third day after the last treatment.
Three other bee families used as control were treated only with ANTIVAR (30 mg of amitrase) in the periods of treatments by the fermentation broth prepared in Example 8 a). Then the number of perished mites and bees inside the hive was counted and registered. Also, the general condition and behavior of the families and the queen-bee were observed.
A tray made of aluminum and provided with a 5 mm high folded rim was placed on the floor-plate of the bee-hives. In case of necessity, the tray could be removed or replaced through an appropriately shaped opening made in the plane of the floor-plate, without the need to open the bee-hive itself.
Under the term of "inhabited strip of the honeycomb" we mean the area stretching between two adjacent sections of the honeycomb was meant where at least 70 to 80% of opposite surfaces of the honeycomb were covered by bees.
By each treatment, 60 ml of cell-free undiluted fermentation broth, prepared as described in Example 8a) and kept at room temperature, were sprayed by using a manually operated air-jet device onto the entire surface of nine frames holding three families of bees (i.e. onto a surface of 27 216 cm^2 per family). The bees covered the honeycomb surface quite evenly during the spraying. The smoking strip containing the amitrase active agent (ANTIVAR) used as control was bent in a "V"-form and placed onto the aluminum tray, then lit and pushed inside the bee-hive. The exit opening was kept closed for one hour.
a) The number of perished mites was registered in the 24th, 48th and 72nd hour after treatments.
Number of perished Varroa jacobsoni mites each per bee family after treatments carried out every 3rd day, 3 times altogether by using the cell-free fermentation broth prepared as described in Example 8a) followed by a treatment with amitrase
Number of perished "Varroa jacobsoni" mites each per bee family after treatment in every third day, 4 times altogether by using 30 mg of amitrase per treatment (control)

Which results are given for `Cc1ccc(N=CN(C)C=Nc2ccc(C)cc2C)c(C)c1` [amitrase]?
LD50 (Apis mellifera): 12 microgram/bee; effect (Varroa jacobsoni; amitrase-treating, as shown in example 38): < 100%; Number of perished mites (Varroa jacobsoni; control group, 4th amitrase treatment (30 mg), 24 h after treatment, bee family No. 1): 57; Number of perished mites (Varroa jacobsoni; control group, 4th amitrase treatment (30 mg), 24 h after treatment, bee family No. 2): 55; Number of perished mites (Varroa jacobsoni; control group, 4th amitrase treatment (30 mg), 24 h after treatment, bee family No. 3): 32; Number of perished mites (Varroa jacobsoni; control group, 4th amitrase treatment (30 mg), 48 h after treatment, bee family No. 1): 4; Number of perished mites (Varroa jacobsoni; control group, 4th amitrase treatment (30 mg), 48 h after treatment, bee family No. 2): 0; Number of perished mites (Varroa jacobsoni; control group, 4th amitrase treatment (30 mg), 48 h after treatment, bee family No. 3): 4; Number of perished mites (Varroa jacobsoni; control group, 4th amitrase treatment (30 mg), 72 h after treatment, bee family No. 1): 1; Number of perished mites (Varroa jacobsoni; control group, 4th amitrase treatment (30 mg), 72 h after treatment, bee family No. 2): 0; Number of perished mites (Varroa jacobsoni; control group, 4th amitrase treatment (30 mg), 72 h after treatment, bee family No. 3): 1; Number of perished mites, Total (Varroa jacobsoni; control group, 4th amitrase treatment (30 mg), total, bee family No. 1): 62; Number of perished mites, Total (Varroa jacobsoni; control group, 4th amitrase treatment (30 mg), total, bee family No. 2): 55; Number of perished mites, Total (Varroa jacobsoni; control group, 4th amitrase treatment (30 mg), total, bee family No. 3): 37; Number of perished mites (Varroa jacobsoni; treatment 1, 24 h after treatment, bee family No. 1): 164; Number of perished mites (Varroa jacobsoni; treatment 1, 24 h after treatment, bee family No. 2): 241; Number of perished mites (Varroa jacobsoni; treatment 1, 24 h after treatment, bee family No. 3): 190; Number of perished mites (Varroa jacobsoni; treatment 1, 48 h after treatment, bee family No. 1): 3; Number of perished mites (Varroa jacobsoni; treatment 1, 48 h after treatment, bee family No. 2): 12; Number of perished mites (Varroa jacobsoni; treatment 1, 48 h after treatment, bee family No. 3): 3; Number of perished mites (Varroa jacobsoni; treatment 1, 72 h after treatment, bee family No. 1): 0; Number of perished mites (Varroa jacobsoni; treatment 1, 72 h after treatment, bee family No. 2): 1; Number of perished mites (Varroa jacobsoni; treatment 1, 72 h after treatment, bee family No. 3): 0; Number of perished mites, Total (Varroa jacobsoni; treatment 1, total, bee family No. 1): 167; Number of perished mites, Total (Varroa jacobsoni; treatment 1, total, bee family No. 2): 254; Number of perished mites, Total (Varroa jacobsoni; treatment 1, total, bee family No. 3): 193; Number of perished mites (Varroa jacobsoni; treatment 2, 24 h after treatment, bee family No. 1): 68; Number of perished mites (Varroa jacobsoni; treatment 2, 24 h after treatment, bee family No. 2): 87; Number of perished mites (Varroa jacobsoni; treatment 2, 24 h after treatment, bee family No. 3): 37; Number of perished mites (Varroa jacobsoni; treatment 2, 48 h after treatment, bee family No. 1): 0; Number of perished mites (Varroa jacobsoni; treatment 2, 48 h after treatment, bee family No. 2): 3; Number of perished mites (Varroa jacobsoni; treatment 2, 48 h after treatment, bee family No. 3): 1; Number of perished mites (Varroa jacobsoni; treatment 2, 72 h after treatment, bee family No. 1): 0; Number of perished mites (Varroa jacobsoni; treatment 2, 72 h after treatment, bee family No. 2): 1; Number of perished mites (Varroa jacobsoni; treatment 2, 72 h after treatment, bee family No. 3): 0; Number of perished mites, Total (Varroa jacobsoni; treatment 2, total, bee family No. 1): 68; Number of perished mites, Total (Varroa jacobsoni; treatment 2, total, bee family No. 2): 91; Number of perished mites, Total (Varroa jacobsoni; treatment 2, total, bee family No. 3): 38; Number of perished mites (Varroa jacobsoni; treatment 3, 24 h after treatment, bee family No. 1): 21; Number of perished mites (Varroa jacobsoni; treatment 3, 24 h after treatment, bee family No. 2): 35; Number of perished mites (Varroa jacobsoni; treatment 3, 24 h after treatment, bee family No. 3): 24; Number of perished mites (Varroa jacobsoni; treatment 3, 48 h after treatment, bee family No. 1): 0; Number of perished mites (Varroa jacobsoni; treatment 3, 48 h after treatment, bee family No. 2): 2; Number of perished mites (Varroa jacobsoni; treatment 3, 48 h after treatment, bee family No. 3): 1; Number of perished mites (Varroa jacobsoni; treatment 3, 72 h after treatment, bee family No. 1): 0; Number of perished mites (Varroa jacobsoni; treatment 3, 72 h after treatment, bee family No. 2): 0; Number of perished mites (Varroa jacobsoni; treatment 3, 72 h after treatment, bee family No. 3): 2; Number of perished mites, Total (Varroa jacobsoni; treatment 3, total, bee family No. 1): 21; Number of perished mites, Total (Varroa jacobsoni; treatment 3, total, bee family No. 2): 37; Number of perished mites, Total (Varroa jacobsoni; treatment 3, total, bee family No. 3): 27; Number of perished mites (Varroa jacobsoni; treatment 4: amitrase (30 mg) after 3 treatments with Example 8a) broth, 24 h, bee family No. 1): 225; Number of perished mites (Varroa jacobsoni; treatment 4: amitrase (30 mg) after 3 treatments with Example 8a) broth, 24 h, bee family No. 2): 134; Number of perished mites (Varroa jacobsoni; treatment 4: amitrase (30 mg) after 3 treatments with Example 8a) broth, 24 h, bee family No. 3): 94; Number of perished mites (Varroa jacobsoni; treatment 4: amitrase (30 mg) after 3 treatments with Example 8a) broth, 48 h, bee family No. 1): 24; Number of perished mites (Varroa jacobsoni; treatment 4: amitrase (30 mg) after 3 treatments with Example 8a) broth, 48 h, bee family No. 2): 4; Number of perished mites (Varroa jacobsoni; treatment 4: amitrase (30 mg) after 3 treatments with Example 8a) broth, 48 h, bee family No. 3): 11; Number of perished mites (Varroa jacobsoni; treatment 4: amitrase (30 mg) after 3 treatments with Example 8a) broth, 72 h, bee family No. 1): 0; Number of perished mites (Varroa jacobsoni; treatment 4: amitrase (30 mg) after 3 treatments with Example 8a) broth, 72 h, bee family No. 2): 1; Number of perished mites (Varroa jacobsoni; treatment 4: amitrase (30 mg) after 3 treatments with Example 8a) broth, 72 h, bee family No. 3): 0; Number of perished mites, Total (Varroa jacobsoni; treatment 4: amitrase (30 mg) after 3 treatments with Example 8a) broth, total, bee family No. 1): 249; Number of perished mites, Total (Varroa jacobsoni; treatment 4: amitrase (30 mg) after 3 treatments with Example 8a) broth, total, bee family No. 2): 139; Number of perished mites, Total (Varroa jacobsoni; treatment 4: amitrase (30 mg) after 3 treatments with Example 8a) broth, total, bee family No. 3): 105
